Reference: PMC7851395 (British Journal of Cancer, 2020)

Experiments:
[1] = test system: PC-9 cells; experiment: MTT cytotoxicity assay, PC-9 cells; assay type: cell-based; conditions: Homo sapiens, PC-9, 48 h, PC-9 cells, 48 h, MTT; read-out: IC50
Procedure: (§1) The cytotoxicity and viability of human NSCLC cells and normal cells were determined by MTT assay. MTT assay was performed as described previously.[22] MTT assay was used to determine the cell cytotoxicity and viability in human NSCLC cells. Cells (5 × 10^3 cells/well) were plated in 96-well plates and attached overnight. After the proper treatment, the MTT solution was added at 25 µL/well and incubated at 37 °C for 4 h. The formazan crystals were dissolved in 150 µL of DMSO, and the optical density (OD) was measured using a Microplate Reader at 490 nm. The cell viability was calculated by the following formula: viability = (average OD values of treatment wells/average OD values of vehicle control wells) × 100%. And half-maximal inhibitory concentration (IC50) values were determined by GraphPad Pro Prism 7.0.

[2] = test system: human umbilical vein endothelial cell HUVEC; experiment: MTT cytotoxicity assay, normal HUVEC cells; assay type: cell-based
Procedure: as §1

[3] = test system: PC-9 cells; experiment: Wound-healing migration assay; assay type: cell-based, human; conditions: 25, 50, 100 nM, 48 h
Procedure: The ability of cell migration was evaluated by wound-healing assay. The cells grew to 80–90% confluence in six-well plates and then scraped the cell monolayer at the centre of the wells with the tip of a sterile 10 μL pipette to form a clean, straight wound area. Then, the wells were washed with PBS to remove detached cells from the plates. After that, cells were cultured in serum-free RPMI medium with vehicle control or acetyl-bufalin (25, 50, 100 nM). The migration of cells to the wound area was photographed at the 0, 24 and 48 h timepoints with a microscope and imaging system (Leica, Wetzlar, Germany).

[4] = test system: NIH mice; experiment: Acute toxicity test; assay type: in vivo
Procedure: In the acute toxicity test, 30 NIH mice (female, 8 weeks old) were randomly divided into three groups (n = 10), including vehicle group, bufalin group (30 mg/kg) and acetyl-bufalin group (30 mg/kg). The three groups received intraperitoneal injection only on the first day. All the mice were housed under 12 h light–dark cycles at 25 °C and free for water and diet. […] All the mice were sacrificed by cervical dislocation.

[5] = Pharmacokinetic study in rat plasma (LC-MS/MS); assay type: in vivo, S.D. rats
Procedure: For the pharmacokinetic study, female S.D. rats (body weight 200 ± 10 g) have fasted overnight with free access to water before the experiment. Twelve rats were randomly divided into four groups. The time schedule included eight timepoints, and three S.D. rats were sampled at each time-point. Bufalin and acetyl-bufalin were administered intravenously and intraperitoneally to the rats at the dose of 0.25 mg/kg and 2 mg/kg, respectively. The animals had free access to water during the experiment. Blood samples were collected from the retro-orbital plexus of each rat at 0.083, 0.25, 0.5, 1, 2, 4, 6, 8, 12, 24 h after administration. Plasma was separated from the blood after centrifugation at 6000×g for 10 min and frozen at −20 °C until analysis. In total, 20 µL of standard samples in duplicate, quality control samples in duplicate and rat plasma samples were mixed with 60 µL of ethyl acetate containing IS (200 ng/mL of tolbutamide, 50 ng/mL of propranolol and 500 ng/mL of Dic) in EP tubes. After the mixture was vortexed for 1 min, then centrifuged for 10 min (13,000 rpm, 4 °C), transferred 50 µL supernatant to a 96-well plate with 150 µL purred water, shacked for 10 min and finally injected 5 µL into liquid chromatographic-tandem mass spectrometry (LC-MS/MS) system for analysis.

[6] = test system: STAT3; experiment: STAT3 luciferase-report assay; assay type: cell-based, human; conditions: PC-9 and H460 cells, 0-200 nM, 12 h
Procedure: STAT3 activation was detected by the STAT3 luciferase reporter plasmid (PGLSTAT3-LUC), as was previously described.[23] Simply put, PC-9 and H460 cells were seeded in 24-well plates and incubated for 24 h before transfection. The cells were grown to different densities and co-transfected with pGLSTAT3-Luc and pRL-TK (a plasmid encoding Renilla luciferase) for 6 h using Lipofectamine 3000 (Invitrogen, Carlsbad, CA, USA). Finally, the cells were treated with different concentrations of […] for 12 h. Luciferase activity was assessed by SpectraMax ID3 (Molecular Devices, San Jose, CA, USA). The inhibition of STAT3 activity by acetyl-bufalin was calculated as the ratio between the value of firefly and Renilla luciferase activity. Each experiment was done in triplicate in three independent experiments.

[7] = test system: P-STAT3; experiment: Western blot of STAT3 phosphorylation; assay type: cell-based, human; conditions: H460, A549 and PC-9 cells, 12 h, concentration-dependently
Procedure: (§2) Tissue proteins were extracted with tissue protein lysate buffer. Cells were grown to different densities and extracted with cell protein lysate buffer. The protein was mixed with loading buffer and boiled for 10 min at 100 °C, then loaded and separated by 10% or 12% sodium dodecyl sulfate-polyacrylamide gel (SDS-PAGE) and then transferred onto a PVDF membrane blocking with 5% skim milk. The blots were incubated overnight with specific primary antibodies at 4 °C. On the second day, after washing with TBST (a mixture of tris-buffered saline (TBS) and Tween 20) three times, the […] membranes were incubated with horseradish peroxidase-conjugated secondary antibodies for 1 h. The immunoreactive bands were visualised with enhanced chemiluminescence reagent.

[8] = test system: P-CDK9, CDK9, P-STAT3 and S2 RNAPII; experiment: Western blot of CDK9/STAT3 pathway proteins; assay type: cell-based, human; conditions: H460 and PC-9 cells, 12 h; acetyl-bufalin 25-200 nM, SNS-032 200 nM
Procedure: as §2

[9] = test system: H460 and PC-9 cells; experiment: Cell proliferation in cells transfected with CDK9 siRNA or control siRNA; assay type: cell-based, human
Procedure: as §1
The siRNA targeting human CDK9 was purchased from Genepharma (Shanghai, China) with the following sequence: siCDK9-1: 5′-[…] TT-3′, siCDK9-2: 5′-[…]-3′, siCDK9-3: 5′-[…]-3′. Cells were transfected with 50 nM siRNA using Lipofectamine 3000 (Invitrogen, CA, USA) for 48 h.

CC(=O)OC1CCC2(C)C(CCC3C2CCC2(C)C(c4ccc(=O)oc4)CCC32O)C1 (stereo not drawn) [acetyl-bufalin]
IC50 [1]: 64 nM | cytotoxic effect on normal cells [2]: low toxicity | PC-9 cell migration [3]: markedly blocked | weight of the remaining mice ([4]; 30 mg/kg single i.p., 14 days, compared with vehicle): stable | mortality (mice died) ([4]; 30 mg/kg single intraperitoneal injection, observed 14 days, n = 10): 2/10 | elimination in blood ([5]; 0.25 mg/kg i.v. and 2 mg/kg i.p.): much slower than bufalin | Cmax ([5]; acetyl-bufalin and bufalin formed from it, compared with bufalin dosing): smaller | P-STAT3 activation (luciferase reporter) [6]: significantly inhibited | P-STAT3 protein levels [7]: reduced | P-CDK9, CDK9, P-STAT3 and S2 RNAPII expressions [8]: significantly dose-dependently decreased | cell proliferation of siCDK9 cells ([9]; H460 and PC-9 transfected with CDK9 siRNA1, 48 h): did not significantly affect | cell proliferation of control siRNA cells ([9]; H460 and PC-9 transfected with control siRNA, 48 h): hampered cell proliferation
